Data set [1] concerns cultured mouse leukemia cell P388. The experiment in a line: inhibition of growth of cultured cells. In kind it is cell-based. The conditions noted are these: read-out: median inhibition dose, ID50. As for the experimental part:
The anti-tumor activity of substance MG883-12F2 can be confirmed by measuring its ability to inhibit the growth of known cultured cells. For example, the median inhibition dose, ID50, of substance MG883-12F2 against cultured mouse leukemia cell P388 was 0.5 mg/ml.

Data set [2] is described as follows: anti-tumor activity compared with streptonigrin. Conditions: comparison with streptonigrin, no data given.
Data set [3] can be described thus: cytotoxicity compared with streptonigrin. Conditions: comparison with streptonigrin, no data given.

Among the data in patent EP0185979A1, “A novel substance having anti-tumor activity, a microbiological process for the preparation thereof and its use as a medicament” (MICROBIAL CHEMISTRY RESEARCH FOUNDATION, priority 1984, dated 1986) are IC50, anti-tumor activity and cytotoxicity values, retold here.

Converted amounts (≈) assume the structure as drawn.

`COc1ccc(-c2c(C)c(C(=O)O)nc(-c3ccc4c(n3)C(=O)C(N)=C(O)C4=O)c2N)c(O)c1OC` [substance MG883-12F2]: the IC50 in data set [1] worked out at 500 µg/mL (≈ 1020 µM). Also, the anti-tumor activity result in data set [2] is “slightly inferior to streptonigrin”. The cytotoxicity entry in data set [3] is given as “lower cytotoxicity”.
